Experimental data from patent US8639486B2, “Method for identifying inhibitors of Staphylococcus aureus” (Indian Institute of Science, priority 2010, dated 2014).
Residues, ends and D or L forms follow the SMILES beside them.

biological target: S. aureus N-Succinyl-L,L-DAP Desuccinylase (DapE), SEQ ID NO: 2 (Staphylococcus aureus, UniProt Q5HF23); experiment: qualitative dipeptidase activity (TLC assay); assay type: biochemical, Staphylococcus aureus COL; design: key: +: Mild hydrolytic activity; ++: Moderate hydrolytic activity; +++: High hydrolytic activity; conditions: 5.0 mg/mL dipeptide, 2 μg DapE, 50 mM Tris-HCl pH 7.5, 37° C., 30 min
Sequence (Q5HF23 whole entry): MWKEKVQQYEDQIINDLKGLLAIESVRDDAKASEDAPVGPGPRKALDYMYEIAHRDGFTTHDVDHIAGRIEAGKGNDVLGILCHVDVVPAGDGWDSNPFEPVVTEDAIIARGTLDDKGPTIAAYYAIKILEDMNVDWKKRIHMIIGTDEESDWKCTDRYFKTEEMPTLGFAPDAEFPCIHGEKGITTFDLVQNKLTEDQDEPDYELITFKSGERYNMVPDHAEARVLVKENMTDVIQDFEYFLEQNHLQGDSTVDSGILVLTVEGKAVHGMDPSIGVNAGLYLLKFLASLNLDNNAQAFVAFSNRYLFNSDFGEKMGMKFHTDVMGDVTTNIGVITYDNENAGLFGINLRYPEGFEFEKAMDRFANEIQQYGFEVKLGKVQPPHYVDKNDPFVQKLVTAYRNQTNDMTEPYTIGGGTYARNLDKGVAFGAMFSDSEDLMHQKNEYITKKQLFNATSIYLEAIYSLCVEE

Compound	Activity (qualitative dipeptidase / hydrolytic activity)
C[C@H](N)C(=O)N[C@@H](CO)C(=O)O [Ala-Ser] (H-Ala-Ser-OH)	+
C[C@H](NC(=O)[C@@H](N)CCCN=C(N)N)C(=O)O [Arg-Ala] (H-Arg-Ala-OH)	+++
CC[C@H](C)[C@H](NC(=O)[C@@H](N)CCCN=C(N)N)C(=O)O [Arg-Ile] (H-Arg-Ile-OH)	+++
CC(C)C[C@H](NC(=O)[C@@H](N)CCCN=C(N)N)C(=O)O [Arg-Leu] (H-Arg-Leu-OH)	+++
CC(C)[C@H](NC(=O)[C@@H](N)CCCN=C(N)N)C(=O)O [Arg-Val] (H-Arg-Val-OH)	+++
NCCCC[C@H](NC(=O)[C@@H](N)CC(=O)O)C(=O)O [Asp-Lys] (H-Asp-Lys-OH)	+
NCCCC[C@H](NC(=O)CN)C(=O)O [Gly-Lys] (H-Gly-Lys-OH)	+
NCC(=O)N[C@@H](CO)C(=O)O [Gly-Ser] (H-Gly-Ser-OH)	+
CC(C)C[C@H](NC(=O)[C@@H](N)Cc1cnc[nH]1)C(=O)O [His-Leu] (H-His-Leu-OH)	+
CC(C)C[C@H](NC(=O)[C@@H](N)CCCCN)C(=O)O [Lys-Leu] (H-Lys-Leu-OH)	++
NCCCC[C@H](N)C(=O)N[C@@H](Cc1ccccc1)C(=O)O [Lys-Phe]	++
CC(C)[C@H](NC(=O)[C@@H](N)Cc1ccccc1)C(=O)O [Phe-Val] (H-Phe-Val-OH)	+++
N[C@@H](CO)C(=O)N[C@@H](Cc1cnc[nH]1)C(=O)O [Ser-His] (H-Ser-His-OH)	++

biological target: DapA from gram negative bacteria (E. coli) (Escherichia coli, UniProt P0A6L2); experiment: not given; conditions: less sensitive, read-out: IC50 of feedback inhibition by L-lysine; cited from earlier work
Sequence (P0A6L2 whole entry): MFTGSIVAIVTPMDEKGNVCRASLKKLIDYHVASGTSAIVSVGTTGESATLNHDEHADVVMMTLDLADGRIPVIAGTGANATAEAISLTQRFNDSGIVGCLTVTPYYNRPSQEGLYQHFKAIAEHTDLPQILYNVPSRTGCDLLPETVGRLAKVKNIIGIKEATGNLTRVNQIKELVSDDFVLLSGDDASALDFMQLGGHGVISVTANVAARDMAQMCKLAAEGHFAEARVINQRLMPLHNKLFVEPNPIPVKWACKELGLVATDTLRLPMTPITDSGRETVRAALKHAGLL

Compound	IC50 [mM]
NCCCC[C@H](N)C(=O)O [L-lysine]	100

system: botanical DapA (N. sylvestris); experiment: not given; conditions: highly sensitive, read-out: IC50 of feedback inhibition by L-lysine; cited from earlier work

Compound	IC50 [mM]
NCCCC[C@H](N)C(=O)O [L-lysine]	0.015 to 0.02

system: CC(C)[C@H](NC(=O)[C@@H](N)Cc1ccccc1)C(=O)O; experiment: purified protein, by the assay type; conditions: other: holo-DapE + Mn^2+ + TCEP, Phe-Val, pH 7.5, 37° C.

Compound	Km [µM]
S. aureus N-Succinyl-L,L-DAP Desuccinylase (DapE), holo form, SEQ ID NO: 2 (Staphylococcus aureus subsp. aureus COL)	1100 ± 100

same assay, conditions: other: holo-DapE + Mn^2+, Phe-Val, pH 7.5, 37° C.

Compound	Km [µM]
S. aureus N-Succinyl-L,L-DAP Desuccinylase (DapE), holo form, SEQ ID NO: 2 (Staphylococcus aureus subsp. aureus COL)	1150 ± 120

same assay, conditions: other: holo-DapE, Phe-Val, pH 7.5, 37° C.

Compound	Km [µM]
S. aureus N-Succinyl-L,L-DAP Desuccinylase (DapE), holo form, SEQ ID NO: 2 (Staphylococcus aureus subsp. aureus COL)	670 ± 100
